Measurements as given in ChEMBL document CHEMBL5360625, “Design, Synthesis, and Antitumor Activity Evaluation of 2-Arylmethoxy-4-(2,2'-dihalogen-substituted biphenyl-3-ylmethoxy) Benzylamine Derivatives as Potent PD-1/PD-L1 Inhibitors” (J Med Chem, 2023).
Each block holds one molecule with its values, some of them ahead of it.

Legend:
[1] = biological target: Programmed cell death protein 1/Programmed cell death 1 ligand 1 (Homo sapiens, UniProt Q9NZQ7); assay: Inhibition of PD-1/PD-L1 interaction (unknown origin) incubated for 1 hr by HTRF assay; type: protein-complex assay
[2] = system: PBMC; assay: Cytotoxicity against human PBMC cells assessed as reduction in cell viability at 1 to 4 uM measured after 48 hrs by CCK-8 assay; type: toxicity, cell-based; conditions: dose 1-4 µM
[3] = AUC (0 to infinity) in Sprague-Dawley rat at 10 mg/kg, ip measured upto 48 hrs by LC-MS/MS analysis; type: ADME, organism-based; set-up: time < 48 hrs, dose 10 mg/kg, route ip; conditions: in vivo
[4] = AUC (0 to infinity) in Sprague-Dawley rat at 40 mg/kg, IG measured upto 48 hrs by LC-MS/MS analysis; type: ADME, organism-based; set-up: time < 48 hrs, dose 40 mg/kg, route ig; conditions: in vivo, po, 48 h
[5] = Apparent volume of distribution in Sprague-Dawley rat at 8 mg/kg, iv measured upto 48 hrs by LC-MS/MS analysis; type: ADME, organism-based; conditions: in vivo, iv, 8 mg/kg, 48 h
[6] = Half life in Sprague-Dawley rat at 8 mg/kg, iv measured upto 48 hrs by LC-MS/MS analysis; type: ADME, organism-based; conditions: in vivo, iv, 8 mg/kg, 48 h
[7] = Tmax in Sprague-Dawley rat at 10 mg/kg, ip measured upto 48 hrs by LC-MS/MS analysis; type: ADME, organism-based; conditions: in vivo
[8] = Half life in Sprague-Dawley rat at 10 mg/kg, ip measured upto 48 hrs by LC-MS/MS analysis; type: ADME, organism-based; conditions: in vivo
[9] = system: MC-38; assay: Antitumor activity against mouse MC38 cells expressing human PD-L1 protein assessed as reduction in cell viability measured after 48 hrs by CCK-8 assay; type: functional, cell-based; conditions: MC-38, 48 h
[10] = Half life in Sprague-Dawley rat at 40 mg/kg, IG measured upto 48 hrs by LC-MS/MS analysis; type: ADME, organism-based; conditions: in vivo, po, 40 mg/kg, 48 h
[11] = Apparent volume of distribution in Sprague-Dawley rat at 10 mg/kg, ip measured upto 48 hrs by LC-MS/MS analysis; type: ADME, organism-based; conditions: in vivo
[12] = AUC (0 to t) in Sprague-Dawley rat at 40 mg/kg, IG measured upto 48 hrs by LC-MS/MS analysis; type: ADME, organism-based; set-up: dose 40 mg/kg, time < 48 hrs, route ig; conditions: in vivo, po
[13] = Clearance in Sprague-Dawley rat at 8 mg/kg, iv measured upto 48 hrs by LC-MS/MS analysis; type: ADME, organism-based; conditions: in vivo, iv, 8 mg/kg, 48 h
[14] = Cmax in Sprague-Dawley rat at 10 mg/kg, ip measured upto 48 hrs by LC-MS/MS analysis; type: ADME, organism-based; set-up: time < 48 hrs, dose 10 mg/kg, route ip; conditions: in vivo
[15] = Clearance in Sprague-Dawley rat at 40 mg/kg, IG measured upto 48 hrs by LC-MS/MS analysis; type: ADME, organism-based; conditions: in vivo, po, 40 mg/kg, 48 h
[16] = Tmax in Sprague-Dawley rat at 8 mg/kg, iv measured upto 48 hrs by LC-MS/MS analysis; type: ADME, organism-based; conditions: in vivo
[17] = AUC (0 to t) in Sprague-Dawley rat at 10 mg/kg, ip measured upto 48 hrs by LC-MS/MS analysis; type: ADME, organism-based; set-up: time < 48 hrs, dose 10 mg/kg, route ip; conditions: in vivo
[18] = Apparent volume of distribution in Sprague-Dawley rat at 40 mg/kg, IG measured upto 48 hrs by LC-MS/MS analysis; type: ADME, organism-based; conditions: in vivo, po
[19] = Cmax in Sprague-Dawley rat at 8 mg/kg, iv measured upto 48 hrs by LC-MS/MS analysis; type: ADME, organism-based; set-up: time < 48 hrs, dose 8 mg/kg, route iv; conditions: in vivo
[20] = Bioavailability in Sprague-Dawley rat at 40 mg/kg, IG measured upto 48 hrs by LC-MS/MS analysis; type: ADME, organism-based; conditions: in vivo, po
[21] = Clearance in Sprague-Dawley rat at 10 mg/kg, ip measured upto 48 hrs by LC-MS/MS analysis; type: ADME, organism-based; conditions: in vivo
[22] = AUC (0 to t) in Sprague-Dawley rat at 8 mg/kg, iv measured upto 48 hrs by LC-MS/MS analysis; type: ADME, organism-based; set-up: dose 8 mg/kg, time < 48 hrs, route iv; conditions: in vivo
[23] = Cmax in Sprague-Dawley rat at 40 mg/kg, IG measured upto 48 hrs by LC-MS/MS analysis; type: ADME, organism-based; set-up: dose 40 mg/kg, time < 48 hrs, route ig; conditions: in vivo, po
[24] = AUC (0 to infinity) in Sprague-Dawley rat at 8 mg/kg, iv measured upto 48 hrs by LC-MS/MS analysis; type: ADME, organism-based; set-up: time < 48 hrs, dose 8 mg/kg, route iv; conditions: in vivo

Programmed cell death protein 1/Programmed cell death 1 ligand 1, sequence (Q15116 whole entry): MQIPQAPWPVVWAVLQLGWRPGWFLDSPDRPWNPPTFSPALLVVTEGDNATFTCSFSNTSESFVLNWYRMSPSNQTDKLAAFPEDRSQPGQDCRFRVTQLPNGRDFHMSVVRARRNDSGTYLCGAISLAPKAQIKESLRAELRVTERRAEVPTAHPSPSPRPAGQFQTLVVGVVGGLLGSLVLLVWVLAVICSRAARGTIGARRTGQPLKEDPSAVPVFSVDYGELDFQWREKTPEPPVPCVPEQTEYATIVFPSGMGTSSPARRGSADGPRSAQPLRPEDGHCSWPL
Programmed cell death protein 1/Programmed cell death 1 ligand 1, sequence (Q9NZQ7 whole entry): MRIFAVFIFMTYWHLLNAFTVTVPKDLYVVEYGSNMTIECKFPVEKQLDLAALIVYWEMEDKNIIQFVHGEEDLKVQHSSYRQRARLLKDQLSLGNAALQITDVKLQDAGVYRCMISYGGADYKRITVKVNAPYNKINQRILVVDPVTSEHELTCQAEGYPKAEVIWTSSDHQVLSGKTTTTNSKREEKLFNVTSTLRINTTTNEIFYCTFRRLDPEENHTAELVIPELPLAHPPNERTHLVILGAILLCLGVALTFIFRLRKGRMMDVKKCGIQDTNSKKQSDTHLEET

SMILES: COc1c(COc2ccc(CNCCO)c(OCc3cncc(C#N)c3)c2)cccc1-c1ccccc1F
IC50 [1]: 417 µM

SMILES: COc1c(NCc2ccc(OCc3ccc(F)cc3)c(CNCCNC(C)=O)c2)cccc1-c1ccc2cc[nH]c2c1
IC50 [1]: > 32 µM

SMILES: COc1c(COc2ccc(CNCCO)c(OCc3cncc(C#N)c3)c2)cccc1-c1ccccc1
IC50 [1]: 0.8 µM

SMILES: COc1c(COc2ccc(CNCCNC(C)=O)c(OCc3ccc(C#N)cc3)c2)cccc1-c1ccccc1
IC50 [1]: 22.7 µM

SMILES: COc1c(COc2ccc(CNCCNC(C)=O)c(OCc3cccc(C#N)c3)c2)cccc1-c1ccc2c(c1)OCCO2
IC50 [1]: 2.9 µM

SMILES: COc1c(COc2ccc(CN[C@@H](CO)C(=O)O)c(OCc3cccc(C#N)c3)c2)cccc1-c1ccccc1
IC50 [1]: 2.6 µM

SMILES: COc1c(COc2ccc(CNCC(=O)O)c(OCc3cccc(C#N)c3)c2)cccc1-c1ccccc1
IC50 [1]: 5.5 µM

SMILES: COc1c(NCc2ccc(OCc3ccc(C(=O)O)cc3)c(CNCCO)c2)cccc1-c1ccccc1
IC50 [1]: > 32 µM

SMILES: COc1c(COc2ccc(OCc3cccc(C#N)c3)c(CNCCNC(C)=O)c2)cccc1-c1ccccc1
IC50 [1]: > 32 µM

SMILES: COc1c(NCc2ccc(OCc3cccc(C#N)c3)c(CNCCO)c2)cccc1-c1ccc2cc[nH]c2c1
IC50 [1]: > 32 µM

SMILES: COc1c(NCc2ccc(OCc3cccc(C#N)c3)c(CNCCO)c2)cccc1-c1ccc2ccccc2c1
IC50 [1]: > 32 µM

SMILES: COc1nc(OCc2cccc(-c3ccccc3)c2C)ccc1CNCCNC(C)=O
Activity [2]: Non-Toxic

SMILES: COc1c(COc2ccc(CNCCNC(C)=O)c(OCc3cccc(F)c3)c2)cccc1-c1ccccc1
IC50 [1]: 11.3 µM

SMILES: COc1c(COc2ccc(CNCCNC(C)=O)c(OCc3cccc(C#N)c3)c2)cccc1-c1ccc(F)cc1
IC50 [1]: 16 µM

SMILES: COc1c(COc2ccc(CN3CCC[C@@H]3C(=O)O)c(OCc3cccc(C#N)c3)c2)cccc1-c1ccccc1
IC50 [1]: 19.4 µM

SMILES: N#Cc1cccc(COc2cc(OCc3cccc(-c4ccccc4F)c3F)ccc2CN[C@@H](CO)C(=O)O)c1
IC50 [1]: 115 µM

SMILES: COc1c(COc2ccc(CN3CCC(O)C3)c(OCc3cncc(C#N)c3)c2)cccc1-c1ccccc1 (configuration not stated)
IC50 [1]: 6.2 µM

SMILES: COc1c(COc2ccc(CNCCNC(C)=O)c(OCc3cccc(C#N)c3)c2)cccc1-c1ccc2ccccc2c1
IC50 [1]: 16 µM

SMILES: COc1c(COc2ccc(CN3C[C@@H](O)C[C@@H]3C(=O)O)c(OCc3cccc(C#N)c3)c2)cccc1-c1ccccc1
IC50 [1]: 21.8 µM

SMILES: COc1c(COc2ccc(CN[C@H](C(=O)O)C(C)O)c(OCc3cccc(C#N)c3)c2)cccc1-c1ccccc1 (single isomer, unassigned)
IC50 [1]: 17.3 µM

SMILES: COc1c(COc2ccc(CNCCNC(C)=O)c(OCc3cccc(C#N)c3)c2)cccc1-c1ccccc1F
IC50 [1]: 2.4 µM

SMILES: COc1c(COc2ccc(CN3CCC[C@H]3C(=O)O)c(OCc3cccc(C#N)c3)c2)cccc1-c1ccccc1
IC50 [1]: 18.9 µM

SMILES: COc1c(COc2cc(OCc3cncc(C#N)c3)c(CNCCNC(C)=O)cc2Cl)cccc1-c1ccccc1F
IC50 [1]: 468 µM

SMILES: N#Cc1cccc(COc2cc(OCc3cccc(-c4ccccc4F)c3)ccc2CNCCO)c1
IC50 [1]: > 500 µM

SMILES: COc1c(COc2ccc(OCc3cccc(C#N)c3)c(CNCCO)c2)cccc1-c1ccccc1
IC50 [1]: > 32 µM

SMILES: COc1c(NCc2ccc(OCc3ccc(F)cc3)c(CNCCO)c2)cccc1-c1ccc2ccccc2c1
IC50 [1]: > 32 µM

SMILES: COc1c(COc2ccc(CNCCNC(C)=O)c(OCc3cncc(C#N)c3)c2)cccc1-c1ccccc1
IC50 [1]: 1.6 µM

AUC(0-inf) [3]: 2160 ng·h/mL | AUC [4]: 2869.12 ng·h/mL | Vz [5]: 2.04 L/kg | t1/2 [6]: 6.6 min | Tmax [7]: 49.8 min | half-life [8]: 97.8 min | t1/2 [10]: 188 min | Vz [11]: 8.28 L/kg | AUC(0-t) at 48 h [12]: 2660 ng·h/mL | CL [13]: 75.3 mL/min/kg | Cmax [14]: 786 ng/mL | CL [15]: 572.5 mL/min/kg | Tmax [16]: 4.8 min | AUC(0-t) at 48 h [17]: 1970 ng·h/mL | Vz [18]: 65.83 L/kg | Cmax [19]: 2530 ng/mL | bioavailability [20]: 42% | CL/F [21]: 78 mL/min/kg | AUC(0-t) at 48 h [22]: 1370 ng·h/mL | Cmax [23]: 1290 ng/mL | AUC(0-inf) [24]: 1840 ng·h/mL
SMILES: N#Cc1cccc(COc2cc(OCc3cccc(-c4ccccc4F)c3Cl)ccc2CNCC(=O)O)c1
Activity [2]: Non-Toxic | IC50 [9]: > 8 µM | IC50 [1]: 6 µM

SMILES: COc1c(COc2ccc(CNCCNC(C)=O)c(OCc3cccnc3F)c2)cccc1-c1ccccc1
IC50 [1]: 12.9 µM
